The values below come from paper PMC11850817 (Scientific Reports, 2025).

One experiment concerns the target CHEK1 (Homo sapiens, UniProt O14757). The experiment is described as follows: Radiometric kinase assay. The conditions noted are these: read-out: Kinase inhibition (%) CHEK1. It counts as biochemical.
The target in a further experiment is MAP2K1 (Homo sapiens, UniProt Q02750). In words: Radiometric kinase assay. It counts as biochemical. The note with it: read-out: Kinase inhibition (%) MAP2K1.
Sequence of MAP2K1 (Q02750 whole entry): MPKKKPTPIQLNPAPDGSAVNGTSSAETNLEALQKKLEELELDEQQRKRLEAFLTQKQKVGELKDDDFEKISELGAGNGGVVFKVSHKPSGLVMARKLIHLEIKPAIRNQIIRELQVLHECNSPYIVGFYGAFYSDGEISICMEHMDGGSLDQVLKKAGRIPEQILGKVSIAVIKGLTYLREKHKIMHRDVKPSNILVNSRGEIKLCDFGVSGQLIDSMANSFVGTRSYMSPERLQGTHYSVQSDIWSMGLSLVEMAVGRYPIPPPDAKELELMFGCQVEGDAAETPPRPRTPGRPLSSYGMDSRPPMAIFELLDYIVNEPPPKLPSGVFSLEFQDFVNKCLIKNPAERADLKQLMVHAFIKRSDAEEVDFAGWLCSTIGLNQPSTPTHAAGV
Another experiment relates to NIH3T3. The experiment is described as follows: MTT assay, NIH3T3 non-cancer cell line. Type of experiment: cell-based. The note with it: Mus musculus, NIH3T3, 72 h, read-out: IC50 NIH3T3. (Formazan colour is commonly taken as a measure of viable cells.)
The next experiment addresses KDR (VEGFR2) (Homo sapiens, UniProt P35968). In words: Radiometric kinase assay. It counts as biochemical. The conditions noted are these: read-out: Kinase inhibition (%) KDR (VEGFR2).
The target of another experiment is AURKA (Homo sapiens, UniProt O14965). The experiment is described as follows: Radiometric kinase assay. Type of experiment: biochemical. The conditions noted are these: read-out: Kinase inhibition (%) AURKA.
Sequence of AURKA (O14965 whole entry): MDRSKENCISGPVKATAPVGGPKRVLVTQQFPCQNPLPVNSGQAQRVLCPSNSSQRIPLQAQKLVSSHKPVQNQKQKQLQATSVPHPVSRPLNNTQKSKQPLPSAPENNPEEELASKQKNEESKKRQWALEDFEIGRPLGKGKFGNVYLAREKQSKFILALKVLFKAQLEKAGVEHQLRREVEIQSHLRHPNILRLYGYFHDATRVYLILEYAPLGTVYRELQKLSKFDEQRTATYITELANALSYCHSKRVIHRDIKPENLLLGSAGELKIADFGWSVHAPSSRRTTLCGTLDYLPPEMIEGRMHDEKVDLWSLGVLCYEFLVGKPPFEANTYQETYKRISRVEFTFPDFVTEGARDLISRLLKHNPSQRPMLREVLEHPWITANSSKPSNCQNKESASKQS
The test system of a further experiment is AsPC-1. In words: MTT antiproliferative assay, AsPC-1. It counts as cell-based, human. The note with it: Homo sapiens, ASPC1, 72 h, read-out: IC50 AsPC-1.
In a further experiment the target is T1, AXL (Homo sapiens, UniProt P30530).
T1 sequence (P30530 26-894): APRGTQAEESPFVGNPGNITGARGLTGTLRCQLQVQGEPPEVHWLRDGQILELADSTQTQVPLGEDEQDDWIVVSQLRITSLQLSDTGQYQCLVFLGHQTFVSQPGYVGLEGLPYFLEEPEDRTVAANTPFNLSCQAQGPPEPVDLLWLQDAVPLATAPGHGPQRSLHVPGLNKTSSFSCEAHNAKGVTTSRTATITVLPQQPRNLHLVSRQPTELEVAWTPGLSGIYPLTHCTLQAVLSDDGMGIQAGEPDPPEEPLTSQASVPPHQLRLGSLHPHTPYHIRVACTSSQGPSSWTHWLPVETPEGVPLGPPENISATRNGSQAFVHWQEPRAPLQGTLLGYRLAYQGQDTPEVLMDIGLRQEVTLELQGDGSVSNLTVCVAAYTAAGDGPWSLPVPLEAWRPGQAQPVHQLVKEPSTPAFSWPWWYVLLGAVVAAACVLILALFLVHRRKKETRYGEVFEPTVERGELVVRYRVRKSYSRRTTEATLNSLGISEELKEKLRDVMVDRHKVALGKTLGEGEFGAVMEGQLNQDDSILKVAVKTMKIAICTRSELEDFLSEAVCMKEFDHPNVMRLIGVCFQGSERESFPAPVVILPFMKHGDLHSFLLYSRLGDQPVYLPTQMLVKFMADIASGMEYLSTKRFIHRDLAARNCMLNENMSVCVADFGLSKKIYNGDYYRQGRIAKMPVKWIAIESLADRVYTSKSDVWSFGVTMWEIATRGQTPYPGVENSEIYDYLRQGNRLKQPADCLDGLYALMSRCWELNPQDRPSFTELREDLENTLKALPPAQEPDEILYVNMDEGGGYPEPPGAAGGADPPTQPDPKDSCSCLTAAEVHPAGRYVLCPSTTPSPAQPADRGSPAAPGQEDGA
In words: Radiometric kinase assay. The note with it: read-out: Kinase inhibition (%) AXL. Type of experiment: biochemical.

The next experiment addresses EGFR (Homo sapiens, UniProt P00533). The experiment is described as follows: Radiometric kinase assay. The note with it: read-out: Kinase inhibition (%) EGFR. It counts as biochemical.
In experiment [1] the test system is EBC-1, AsPC-1, Mia-Paca-2, HT-29, MCF-7 cancer cells. The experiment is described as follows: MTT antiproliferative assay, cancer cell lines summarised. It counts as cell-based, human. The conditions noted are these: Homo sapiens, read-out: IC50 range against tested cell lines.
In another experiment the target is FLT4 (VEGFR3) (Homo sapiens, UniProt P35916). The experiment is described as follows: Radiometric kinase assay. The conditions noted are these: read-out: Kinase inhibition (%) FLT4 (VEGFR3). Type of experiment: biochemical.
Sequence of FLT4 (VEGFR3) (P35916 25-1363): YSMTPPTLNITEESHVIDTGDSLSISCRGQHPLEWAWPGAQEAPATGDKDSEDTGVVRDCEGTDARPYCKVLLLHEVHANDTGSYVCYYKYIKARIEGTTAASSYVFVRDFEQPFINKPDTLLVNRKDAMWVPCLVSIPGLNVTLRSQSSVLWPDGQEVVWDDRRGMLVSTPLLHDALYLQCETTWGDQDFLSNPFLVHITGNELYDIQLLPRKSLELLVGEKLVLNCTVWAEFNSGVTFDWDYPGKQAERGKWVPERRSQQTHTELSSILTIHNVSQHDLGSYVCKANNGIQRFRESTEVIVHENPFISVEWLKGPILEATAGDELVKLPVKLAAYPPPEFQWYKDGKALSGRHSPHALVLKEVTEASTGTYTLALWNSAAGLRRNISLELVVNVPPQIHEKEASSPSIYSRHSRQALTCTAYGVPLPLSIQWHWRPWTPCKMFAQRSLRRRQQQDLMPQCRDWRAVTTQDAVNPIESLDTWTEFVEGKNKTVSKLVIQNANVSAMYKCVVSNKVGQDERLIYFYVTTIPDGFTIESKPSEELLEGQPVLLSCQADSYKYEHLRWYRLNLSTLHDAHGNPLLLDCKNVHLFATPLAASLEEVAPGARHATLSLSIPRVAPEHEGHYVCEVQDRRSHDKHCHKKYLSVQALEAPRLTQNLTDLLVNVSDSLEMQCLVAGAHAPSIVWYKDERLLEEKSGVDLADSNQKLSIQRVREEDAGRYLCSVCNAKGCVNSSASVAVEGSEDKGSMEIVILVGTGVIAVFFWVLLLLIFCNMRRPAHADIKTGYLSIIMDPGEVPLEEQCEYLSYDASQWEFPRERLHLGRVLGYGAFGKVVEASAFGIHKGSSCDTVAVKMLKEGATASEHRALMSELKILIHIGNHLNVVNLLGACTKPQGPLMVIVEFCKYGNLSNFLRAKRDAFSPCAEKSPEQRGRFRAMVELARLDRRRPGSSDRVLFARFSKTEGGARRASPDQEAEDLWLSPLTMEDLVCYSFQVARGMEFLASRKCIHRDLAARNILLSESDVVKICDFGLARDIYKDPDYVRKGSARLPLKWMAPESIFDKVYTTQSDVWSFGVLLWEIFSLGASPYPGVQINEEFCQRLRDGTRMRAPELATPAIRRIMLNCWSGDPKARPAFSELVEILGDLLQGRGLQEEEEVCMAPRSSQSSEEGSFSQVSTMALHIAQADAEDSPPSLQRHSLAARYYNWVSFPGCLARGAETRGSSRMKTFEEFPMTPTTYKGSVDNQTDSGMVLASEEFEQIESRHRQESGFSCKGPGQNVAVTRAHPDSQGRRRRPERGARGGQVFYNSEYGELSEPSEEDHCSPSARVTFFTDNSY

Sequence of EGFR (P00533 25-1210): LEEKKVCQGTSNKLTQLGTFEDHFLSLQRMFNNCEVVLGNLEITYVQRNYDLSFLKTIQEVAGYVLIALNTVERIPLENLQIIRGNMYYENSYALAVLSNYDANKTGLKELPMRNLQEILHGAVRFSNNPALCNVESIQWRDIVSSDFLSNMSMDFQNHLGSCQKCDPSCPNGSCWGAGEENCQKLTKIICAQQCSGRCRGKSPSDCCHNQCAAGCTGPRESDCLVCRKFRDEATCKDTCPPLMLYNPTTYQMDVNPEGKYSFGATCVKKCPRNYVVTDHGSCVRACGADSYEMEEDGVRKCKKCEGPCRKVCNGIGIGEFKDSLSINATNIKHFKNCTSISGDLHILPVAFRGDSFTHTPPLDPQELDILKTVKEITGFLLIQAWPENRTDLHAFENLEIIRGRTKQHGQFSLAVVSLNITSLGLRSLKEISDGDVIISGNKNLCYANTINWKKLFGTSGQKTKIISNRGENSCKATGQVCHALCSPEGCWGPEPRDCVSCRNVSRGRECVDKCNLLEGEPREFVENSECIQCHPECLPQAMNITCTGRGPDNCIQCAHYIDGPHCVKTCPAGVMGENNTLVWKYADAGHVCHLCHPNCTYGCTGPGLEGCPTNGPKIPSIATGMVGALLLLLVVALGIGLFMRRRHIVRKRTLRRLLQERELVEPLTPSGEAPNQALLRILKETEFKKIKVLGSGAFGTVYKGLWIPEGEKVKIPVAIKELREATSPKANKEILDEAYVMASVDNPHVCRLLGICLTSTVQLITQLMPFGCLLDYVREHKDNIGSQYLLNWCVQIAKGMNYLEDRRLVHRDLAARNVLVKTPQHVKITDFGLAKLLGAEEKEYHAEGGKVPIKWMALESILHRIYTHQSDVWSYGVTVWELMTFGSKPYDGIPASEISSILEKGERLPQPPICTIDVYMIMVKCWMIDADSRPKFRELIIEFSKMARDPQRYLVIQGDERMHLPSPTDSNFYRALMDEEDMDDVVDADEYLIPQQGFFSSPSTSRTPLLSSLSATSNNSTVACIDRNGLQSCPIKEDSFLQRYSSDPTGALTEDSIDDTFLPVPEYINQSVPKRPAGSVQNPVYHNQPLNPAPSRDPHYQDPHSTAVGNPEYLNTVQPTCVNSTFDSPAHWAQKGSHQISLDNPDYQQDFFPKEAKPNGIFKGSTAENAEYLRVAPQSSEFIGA
Sequence of CHEK1 (O14757 whole entry): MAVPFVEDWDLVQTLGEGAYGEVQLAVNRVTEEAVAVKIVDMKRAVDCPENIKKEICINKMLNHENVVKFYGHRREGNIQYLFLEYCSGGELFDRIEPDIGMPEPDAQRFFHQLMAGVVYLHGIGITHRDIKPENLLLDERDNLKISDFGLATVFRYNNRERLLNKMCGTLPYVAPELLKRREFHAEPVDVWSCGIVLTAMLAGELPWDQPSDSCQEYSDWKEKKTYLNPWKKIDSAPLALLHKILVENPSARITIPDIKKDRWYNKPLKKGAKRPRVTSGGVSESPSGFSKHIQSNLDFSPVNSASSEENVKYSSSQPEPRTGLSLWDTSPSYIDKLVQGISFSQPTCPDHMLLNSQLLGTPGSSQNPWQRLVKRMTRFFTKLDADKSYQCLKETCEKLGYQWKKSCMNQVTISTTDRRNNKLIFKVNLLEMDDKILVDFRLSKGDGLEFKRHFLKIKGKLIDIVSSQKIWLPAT

As to `O=C1C=C(Nc2ccc(OCc3cn(Cc4ccc(Cl)c(Cl)c4)nn3)cc2)C(=O)c2ccccc21` [Compound 4e, 2-((4-((1-(3,4-Dichlorobenzyl)−1H-1,2,3-triazol-4-yl)methoxy)phenyl)amino) naphthalene-1,4-dione], the inhibition (usually the relative decrease from the control value, in per cent) at 10 µM on CHEK1 was -12%; at MAP2K1, 4%; at KDR (VEGFR2) it was -9%; at AURKA it was 5%; at AXL it was 5%; on EGFR, -3%. The inhibition at 10 µM on FLT4 (VEGFR3) came to 30%. The IC50 – broadly, the concentration needed to halve the response being measured – in the experiment on NIH3T3 was 6.5 ± 1.2 µM; with AsPC-1, 1.1 ± 0.2 µM; in experiment [1], 0.3 to 7.1 µM.
